Common to all, as to format: biochemical
Assay [1] addresses T1, hIAPP (human islet amyloid polypeptide) (Homo sapiens, UniProt P10997).
T1 construct: gene IAPP; mature peptide of 37 residues (34-70 of the precursor, recalled), bought from KareBay Biochem; aggregating peptide, monomer to fibril
T1 sequence (P10997 34-70): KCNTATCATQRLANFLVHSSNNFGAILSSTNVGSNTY
Description: thioflavin-T fluorescence, aggregation inhibition. To be noted: read-out: IC50 (Aβ/hIAPP, μM) ^a. The source says:
thioflavin-T fluorescence, aggregation inhibition on hIAPP (human islet amyloid polypeptide)

Assay [2] concerns the target T2, Aβ42 (amyloid-β; Aβ) (Homo sapiens, UniProt P05067).
T2 construct: gene APP; Abeta42 peptide of 42 residues (672-713 of APP, recalled); cut from amyloid precursor protein; aggregating peptide, monomer to fibril
In words: thioflavin-T fluorescence, aggregation inhibition. Particulars: read-out: IC50 (Aβ/hIAPP, μM) ^a. The source says:
thioflavin-T fluorescence, aggregation inhibition on Aβ42 (amyloid-β; Aβ)

The target in assay [3] is T1, hIAPP (human islet amyloid polypeptide). In words: thioflavin-T fluorescence, disaggregation of preformed aggregates. Particulars: read-out: EC50 (Aβ/hIAPP, μM) ^a. The text has this:
thioflavin-T fluorescence, disaggregation of preformed aggregates on hIAPP (human islet amyloid polypeptide)

The target in assay [4] is T2, Aβ42 (amyloid-β; Aβ). The description is as above. Particulars: read-out: EC50 (Aβ/hIAPP, μM) ^a. The source says: thioflavin-T fluorescence, disaggregation of preformed aggregates on Aβ42 (amyloid-β; Aβ)

SMILES strings stand for the structures.

T2 sequence (P05067 672-713): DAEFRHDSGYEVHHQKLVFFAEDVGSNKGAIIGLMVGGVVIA

In the case of `Oc1cc(O)c2c(c1)O[C@@]1(c3ccc(O)c(O)c3)Oc3c4c(cc(O)c3[C@@H]2[C@H]1O)O[C@H](c1ccc(O)c(O)c1)[C@@H](O)C4` [compound 6, 6], the IC50 in assay [1] is 11.6 µM; on Aβ42 (amyloid-β; Aβ) [2] it was 6.8 µM.
For `Oc1cc(O)c2c(c1)O[C@H](c1ccc(O)c(O)c1)[C@@H](O)C2` [compound 9, (+)-catechin], in that order: 40.9 µM and 56.8 µM.
As to `COc1cc(OC)c2c(c1)O[C@@]1(c3ccc(OC)c(OC)c3)Oc3cc(OC)c4c(c3[C@@H]2[C@H]1O)O[C@H](c1ccc(OC)c(OC)c1)[C@H](O)C4` [compound 7, 7], the IC50 (in assay [1]; at Aβ42 (amyloid-β; Aβ) [2]) was above 100 µM throughout. For the same compound, the EC50 (in assay [3]; on Aβ42 (amyloid-β; Aβ) [4]) was above 100 µM throughout.
For `Oc1cc(O)c2c(c1)O[C@@]1(c3ccc(O)c(O)c3)Oc3cc(O)c4c(c3[C@@H]2[C@H]1O)O[C@H](c1ccc(O)c(O)c1)[C@H](O)C4` [compound 1, procyanidin A2], the IC50 in assay [1] stood at 8.4 µM; at Aβ42 (amyloid-β; Aβ) [2] it was 4.8 µM. Also, the EC50 in assay [3] is 5.4 µM; on Aβ42 (amyloid-β; Aβ) [4], 3.3 µM.
The corresponding values for `O=C(O[C@@H]1Cc2c(O)cc(O)cc2O[C@@H]1c1cc(O)c(O)c(O)c1)c1cc(O)c(O)c(O)c1` [EGCG, reference compound] are 1.1 µM, 3.8 µM, 3.7 µM and 5 µM.
For `Oc1cc(O)c2c(c1)O[C@@]1(c3ccc(O)c(O)c3)Oc3c4c(cc(O)c3[C@@H]2[C@H]1O)O[C@H](c1ccc(O)c(O)c1)[C@H](O)C4` [compound 5, proanthocyanidin A7], in that order: 13.4 µM, 2.4 µM, 15.8 µM and 8.9 µM.
For the compound `Oc1cc(O)c2c(c1)O[C@H](c1ccc(O)c(O)c1)[C@H](O)C2` [compound 8, (−)-epicatechin], the IC50 in assay [1] came out at 38.9 µM; at Aβ42 (amyloid-β; Aβ) [2], 41.7 µM. Also, the EC50 came out at 12.2 µM in assay [3] and 12.9 µM on Aβ42 (amyloid-β; Aβ) [4].
In the case of `Oc1cc(O)c2c(c1)O[C@@]1(c3ccc(O)c(O)c3)Oc3cc4c(c(O)c3[C@@H]2[C@H]1O)C[C@H](O)[C@@H](c1ccc(O)c(O)c1)O4` [compound 4, 4], the IC50 was found to be 16.8 µM in assay [1] and 5.7 µM on Aβ42 (amyloid-β; Aβ) [2].
Consider `Oc1cc(O)c2c(c1)O[C@@]1(c3ccc(O)c(O)c3)Oc3cc4c(c(O)c3[C@@H]2[C@H]1O)C[C@@H](O)[C@@H](c1ccc(O)c(O)c1)O4` [compound 3, proanthocyanidin A6], for which the figures for the IC50 (in assay [1]; on Aβ42 (amyloid-β; Aβ) [2]) were 16.4 µM and 4.2 µM, respectively. Also, the figures for the EC50 (in assay [3]; at Aβ42 (amyloid-β; Aβ) [4]) were 4.9 µM and 23 µM, respectively.

Source of the values: paper PMC8623168, “Evaluation of Amyloid Polypeptide Aggregation Inhibition and Disaggregation Activity of A-Type Procyanidins” (Pharmaceuticals, 2021).
